Assay results from patent US20260015358A1, “BICYCLIC DERIVATIVES, COMPOSITIONS AND USES THEREOF” (Danatlas Pharmaceuticals Co., Ltd., priority 2023, published 2026).

How the values were obtained:
[1] = molecular target: T1, WRN [UniPro: Q14191 (WRN_HUMAN), N500-C946] (Homo sapiens (Human), UniProt Q14191); assay: WRN unwinding assay (FORKF DNA, fluorescence); assay type: biochemical; settings: Table 14
[2] = molecular target: T1, WRN [UniPro: Q14191 (WRN_HUMAN), N500-C946]; assay: WRN ATPase assay (ADP-Glo); assay type: biochemical; settings: WRN enzymatic activity assay

T1 sequence (Q14191 500-946): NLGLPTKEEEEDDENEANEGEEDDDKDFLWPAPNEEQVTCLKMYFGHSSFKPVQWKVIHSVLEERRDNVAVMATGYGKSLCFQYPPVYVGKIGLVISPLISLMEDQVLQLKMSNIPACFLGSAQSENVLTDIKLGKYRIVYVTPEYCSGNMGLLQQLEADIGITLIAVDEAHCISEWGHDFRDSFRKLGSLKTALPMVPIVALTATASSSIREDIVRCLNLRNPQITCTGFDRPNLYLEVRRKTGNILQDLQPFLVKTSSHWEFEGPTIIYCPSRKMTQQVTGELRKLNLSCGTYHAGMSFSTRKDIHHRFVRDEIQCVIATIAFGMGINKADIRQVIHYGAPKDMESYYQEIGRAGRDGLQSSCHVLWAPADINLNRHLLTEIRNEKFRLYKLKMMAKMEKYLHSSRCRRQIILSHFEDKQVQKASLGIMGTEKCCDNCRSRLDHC

Row | SMILES | IC50 [1] | IC50 [2]
1 | CCc1c(N2CCN(C(=O)C(=O)Nc3cc(C)on3)CC2)c(=O)n2nc(N3CCOCC3)nc2n1CC(=O)Nc1ccc(C(F)(F)F)cc1Cl [Example 352, 2-(4-(4-(2-((2-Chloro-4-(trifluoromethyl)phenyl)amino)-2-oxoethyl)-5-ethyl-2-morpholino-7-oxo-4,7-dihydro-[1,2,4]triazolo[1,5-a]pyrimidin-6-yl)piperazin-1-yl)-N-(5-methylisoxazol-3-yl)-2-oxoacetamide] | 100 to 1000 nM | 100 to 1000 nM
2 | CCc1c(N2CCN(C(=O)C(=O)Nc3nccs3)CC2)c(=O)n2nc(N3Cc4ccncc4C3)nc2n1CC(=O)Nc1ccc(C(F)(F)F)cc1Cl [Example 259, 2-(4-(4-(2-((2-Chloro-4-(trifluoromethyl)phenyl)amino)-2-oxoethyl)-2-(1,3-dihydro-2H-pyrrolo[3,4-c]pyridin-2-yl)-5-ethyl-7-oxo-4,7-dihydro-[1,2,4]triazolo[1,5-a]pyrimidin-6-yl)piperazin-1-yl)-2-oxo-N-(thiazol-2-yl)acetamide] | < 100 nM | 100 to 1000 nM
3 | CCc1c(N2CCN(C(=O)CNC(=O)c3cccs3)CC2)c(=O)n2nc(C3=CCOCC3)nc2n1CC(=O)Nc1ccc(C(F)(F)F)cc1Cl [Example 386, N-(2-(4-(4-(2-((2-Chloro-4-(trifluoromethyl)phenyl)amino)-2-oxoethyl)-2-(3,6-dihydro-2H-pyran-4-yl)-5-ethyl-7-oxo-4,7-dihydro-[1,2,4]triazolo[1,5-a]pyrimidin-6-yl)piperazin-1-yl)-2-oxoethyl)thiophene-2-carboxamide] | < 100 nM | < 100 nM
4 | CCc1c(N2CCN(C(=O)CNC(=O)c3ccno3)CC2)c(=O)n2nc(C3=CCOCC3)nc2n1CC(=O)Nc1ccc(C(F)(F)F)cc1F [Example 220, N-(2-(4-(2-(3,6-Dihydro-2H-pyran-4-yl)-5-ethyl-4-(2-((2-fluoro-4-(trifluoromethyl)phenyl)amino)-2-oxoethyl)-7-oxo-4,7-dihydro-[1,2,4]triazolo[1,5-a]pyrimidin-6-yl)piperazin-1-yl)-2-oxoethyl)isoxazole-5-carboxamide] | < 100 nM | < 100 nM
5 | CCc1c(N2CCN(C(=O)CNC(=O)c3ccc(F)cc3F)CC2)c(=O)n2nc(C3=CCOCC3)nc2n1CC(=O)Nc1ccc(C(F)(F)F)cc1Cl [Example 117, N-(2-(4-(4-(2-((2-Chloro-4-(trifluoromethyl)phenyl)amino)-2-oxoethyl)-2-(3,6-dihydro-2H-pyran-4-yl)-5-ethyl-7-oxo-4,7-dihydro-[1,2,4]triazolo[1,5-a]pyrimidin-6-yl)piperazin-1-yl)-2-oxoethyl)-2,4-difluorobenzamide] | < 100 nM | < 100 nM
6 | CCc1c(N2CCN(C(=O)c3ncc4ccn(C)c4c3O)CC2)c(=O)n2nc(C3=CCOCC3)nc2n1CC(=O)Nc1ccc(C(F)(F)F)cc1Cl [Example 203, N-(2-Chloro-4-(trifluoromethyl)phenyl)-2-(2-(3,6-dihydro-2H-pyran-4-yl)-5-ethyl-6-(4-(7-hydroxy-1-methyl-1H-pyrrolo[3,2-c]pyridine-6-carbonyl)piperazin-1-yl)-7-oxo-[1,2,4]triazolo[1,5-a]pyrimidin-4(7H)-yl)acetamide] | < 100 nM | < 100 nM
7 | CCc1c(N2CCN(C(=O)CNC(=O)C3CC3)CC2)c(=O)n2nc(C3=CCOCC3)nc2n1CC(=O)Nc1ccc(C(F)(F)F)cc1Cl [Example 165, N-(2-(4-(4-(2-((2-Chloro-4-(trifluoromethyl)phenyl)amino)-2-oxoethyl)-2-(3,6-dihydro-2H-pyran-4-yl)-5-ethyl-7-oxo-4,7-dihydro-[1,2,4]triazolo[1,5-a]pyrimidin-6-yl)piperazin-1-yl)-2-oxoethyl)cyclopropanecarboxamide] | < 100 nM | < 100 nM
8 | CCc1c(N2CCN(S(=O)(=O)CC)CC2)c(=O)n2nc(C3=CCOCC3)nc2n1CC(=O)Nc1ccc(C(F)(F)F)cc1Cl [Example 11, N-(2-Chloro-4-(trifluoromethyl)phenyl)-2-(2-(3,6-dihydro-2H-pyran-4-yl)-5-ethyl-6-(4-(ethylsulfonyl)piperazin-1-yl)-7-oxo-[1,2,4]triazolo[1,5-a]pyrimidin-4(7H)-yl)acetamide] | > 1000 nM | 100 to 1000 nM
9 | CCc1c(N2CCN(C(=O)C(=O)Nc3ccccc3)CC2)c(=O)n2nc(C3=CCOCC3)nc2n1CC(=O)Nc1ccc(C(F)(F)F)cc1Cl [Example 327, 2-(4-(4-(2-((2-Chloro-4-(trifluoromethyl)phenyl)amino)-2-oxoethyl)-2-(3,6-dihydro-2H-pyran-4-yl)-5-ethyl-7-oxo-4,7-dihydro-[1,2,4]triazolo[1,5-a]pyrimidin-6-yl)piperazin-1-yl)-2-oxo-N-phenylacetamide] | 100 to 1000 nM | 100 to 1000 nM
10 | CCc1c(N2CCN(C(=O)CNC(=O)c3cc(C)on3)CC2)c(=O)n2nc(C3=CCOCC3)nc2n1CC(=O)Nc1ccc(C(F)(F)F)cc1Cl [Example 107, N-(2-(4-(4-(2-((2-Chloro-4-(trifluoromethyl)phenyl)amino)-2-oxoethyl)-2-(3,6-dihydro-2H-pyran-4-yl)-5-ethyl-7-oxo-4,7-dihydro-[1,2,4]triazolo[1,5-a]pyrimidin-6-yl)piperazin-1-yl)-2-oxoethyl)-5-methylisoxazole-3-carboxamide] | < 100 nM | < 100 nM
11 | CCc1c(N2CCN(C(=O)CN(C)C(C)=O)CC2)c(=O)n2nc(C3=CCOCC3)nc2n1CC(=O)Nc1ccc(C(F)(F)F)cc1Cl [Example 323, 2-(6-(4-(N-Acetyl-N-methylglycyl)piperazin-1-yl)-2-(3,6-dihydro-2H-pyran-4-yl)-5-ethyl-7-oxo-[1,2,4]triazolo[1,5-a]pyrimidin-4(7H)-yl)-N-(2-chloro-4-(trifluoromethyl)phenyl)acetamide] | 100 to 1000 nM | 100 to 1000 nM
12 | CCc1c(N2CCN(C(=O)CNC(=O)c3cccc(NC(C)=O)c3)CC2)c(=O)n2nc(C3=CCOCC3)nc2n1CC(=O)Nc1ccc(C(F)(F)F)cc1Cl [Example 278, 3-Acetamido-N-(2-(4-(4-(2-((2-chloro-4-(trifluoromethyl)phenyl)amino)-2-oxoethyl)-2-(3,6-dihydro-2H-pyran-4-yl)-5-ethyl-7-oxo-4,7-dihydro-[1,2,4]triazolo[1,5-a]pyrimidin-6-yl)piperazin-1-yl)-2-oxoethyl)benzamide] | < 100 nM | < 100 nM
13 | CCc1c(N2CCN(C(=O)C(=O)Nc3nccs3)CC2)c(=O)n2nc(C3=CCOCC3)nc2n1CC(=O)Nc1ccc(C(F)(F)F)cc1Cl [Example 332, 2-(4-(4-(2-((2-Chloro-4-(trifluoromethyl)phenyl)amino)-2-oxoethyl)-2-(3,6-dihydro-2H-pyran-4-yl)-5-ethyl-7-oxo-4,7-dihydro-[1,2,4]triazolo[1,5-a]pyrimidin-6-yl)piperazin-1-yl)-2-oxo-N-(thiazol-2-yl)acetamide] | < 100 nM | < 100 nM
14 | CCc1c(N2CCN(C(=O)CNC(=O)c3ccc(F)c(NC)c3)CC2)c(=O)n2nc(C3=CCOCC3)nc2n1CC(=O)Nc1ccc(C(F)(F)F)cc1Cl [Example 285, N-(2-(4-(4-(2-((2-Chloro-4-(trifluoromethyl)phenyl)amino)-2-oxoethyl)-2-(3,6-dihydro-2H-pyran-4-yl)-5-ethyl-7-oxo-4,7-dihydro-[1,2,4]triazolo[1,5-a]pyrimidin-6-yl)piperazin-1-yl)-2-oxoethyl)-4-fluoro-3-(methylamino)benzamide] | < 100 nM | < 100 nM
15 | CCc1c(N2CCN(C(=O)c3nc4ccccc4cc3N)CC2)c(=O)n2nc(C3=CCOCC3)nc2n1CC(=O)Nc1ccc(C(F)(F)F)cc1Cl [Example 307, 2-(6-(4-(3-Aminoquinoline-2-carbonyl)piperazin-1-yl)-2-(3,6-dihydro-2H-pyran-4-yl)-5-ethyl-7-oxo-[1,2,4]triazolo[1,5-a]pyrimidin-4(7H)-yl)-N-(2-chloro-4 (trifluoromethyl)phenyl)acetamide] | < 100 nM | 100 to 1000 nM
16 | CCc1c(N2CCN(C(=O)CNC(=O)c3cc(N(C)C)ccc3F)CC2)c(=O)n2nc(C3=CCOCC3)nc2n1CC(=O)Nc1ccc(C(F)(F)F)cc1Cl [Example 212, N-(2-(4-(4-(2-((2-Chloro-4-(trifluoromethyl)phenyl)amino)-2-oxoethyl)-2-(3,6-dihydro-2H-pyran-4-yl)-5-ethyl-7-oxo-4,7-dihydro-[1,2,4]triazolo[1,5-a]pyrimidin-6-yl)piperazin-1-yl)-2-oxoethyl)-5-(dimethylamino)-2-fluorobenzamide] | 100 to 1000 nM | 100 to 1000 nM
17 | CCc1c(N2CCN(C(=O)c3nc4cnccn4c3O)CC2)c(=O)n2nc(C3=CCOCC3)nc2n1CC(=O)Nc1ccc(C(F)(F)F)cc1Cl [Example 75, N-(2-Chloro-4-(trifluoromethyl)phenyl)-2-(2-(3,6-dihydro-2H-pyran-4-yl)-5-ethyl-6-(4-(3-hydroxyimidazo[1,2-a]pyrazine-2-carbonyl)piperazin-1-yl)-7-oxo-[1,2,4]triazolo[1,5-a]pyrimidin-4(7H)-yl)acetamide] | < 100 nM | 100 to 1000 nM
18 | CCc1c(N2CCN(C(=O)CNC(=O)c3ncccc3O)CC2)c(=O)n2nc(C3=CCOCC3)nc2n1CC(=O)Nc1ccc(C(F)(F)F)cc1Cl [Example 271, N-(2-(4-(4-(2-((2-Chloro-4-(trifluoromethyl)phenyl)amino)-2-oxoethyl)-2-(3,6-dihydro-2H-pyran-4-yl)-5-ethyl-7-oxo-4,7-dihydro-[1,2,4]triazolo[1,5-a]pyrimidin-6-yl)piperazin-1-yl)-2-oxoethyl)-3-hydroxypicolinamide] | < 100 nM | 100 to 1000 nM
19 | CCc1c(N2CCN(C(=O)CNC(=O)c3ccccc3Cl)CC2)c(=O)n2nc(C3=CCOCC3)nc2n1CC(=O)Nc1ccc(C(F)(F)F)cc1Cl [Example 111, 2-Chloro-N-(2-(4-(4-(2-((2-chloro-4-(trifluoromethyl)phenyl)amino)-2-oxoethyl)-2-(3,6-dihydro-2H-pyran-4-yl)-5-ethyl-7-oxo-4,7-dihydro-[1,2,4]triazolo[1,5-a]pyrimidin-6-yl)piperazin-1-yl)-2-oxoethyl)benzamide] | < 100 nM | < 100 nM
